Source: patent publication US7405280B2, “Chromogenic substances and use thereof for the determination of carboxypeptidase activities” (Diagnostica Stago, priority 2001, dated 2008)

Assays:
plasma TAFI (TAFIa) = biological target: T1, plasma TAFI (TAFIa) (Homo sapiens, UniProt Q96IY4); test: Decolorization of single amino acid substrate AAFR by activated plasma TAFI; type: biochemical; settings: compared with pancreatic CPB
T1 construct: from tissue; host or cells: normal plasma pool, diluted 1/20
T1 sequence (Q96IY4 115-423): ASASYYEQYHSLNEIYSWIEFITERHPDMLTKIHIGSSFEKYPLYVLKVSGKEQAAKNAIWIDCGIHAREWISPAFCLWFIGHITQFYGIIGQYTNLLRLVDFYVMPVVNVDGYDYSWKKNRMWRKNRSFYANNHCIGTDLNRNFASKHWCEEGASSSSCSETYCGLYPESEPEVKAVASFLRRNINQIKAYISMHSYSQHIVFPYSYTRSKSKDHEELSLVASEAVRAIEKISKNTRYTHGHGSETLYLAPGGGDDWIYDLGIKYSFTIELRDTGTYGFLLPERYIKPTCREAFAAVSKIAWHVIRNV
Description: (§1) This substrate was constituted by a single amino acid carrying an anizylazoformyl chromophoric radical (CH3OC6H4—N═N—CO— portion). The amino acid selected was arginine, a basic amino acid normally hydrolyzed by carboxypeptidases B (1).
(§2) This substrate (0.25 mM) was brought into the presence of either a sample of plasma TAFI or a solution of porcine pancreatic carboxypeptidase B (Sigma, Reference: C9584), […].
(§3) The reduction in coloration of each of the two samples was followed using a spectrophotometer. Each sample was treated using the protocol below: • a) Starting sample: • plasma TAFI (present in a normal plasma pool—diluted to 1/20); or • porcine pancreatic carboxypeptidase B, […] (in Hepes buffer); • b) activation with thrombin-thrombomodulin-CaCl2 complex (see Example N^o 2) for the plasma TAFI sample; • c) addition of 5 mM AAFR; • d) read OD at 382 nm.

[1] = biological target: T2, porcine pancreatic carboxypeptidase B (Sus scrofa, UniProt P09955); test: Decolorization of single amino acid substrate AAFR by porcine pancreatic carboxypeptidase B; type: biochemical; settings: porcine CPB 5.2 mol/l in Hepes buffer; 5 mM AAFR; at 382 nm
T2 construct: purchased Sigma C9584; host or cells: porcine pancreas
T2 sequence (P09955 111-416): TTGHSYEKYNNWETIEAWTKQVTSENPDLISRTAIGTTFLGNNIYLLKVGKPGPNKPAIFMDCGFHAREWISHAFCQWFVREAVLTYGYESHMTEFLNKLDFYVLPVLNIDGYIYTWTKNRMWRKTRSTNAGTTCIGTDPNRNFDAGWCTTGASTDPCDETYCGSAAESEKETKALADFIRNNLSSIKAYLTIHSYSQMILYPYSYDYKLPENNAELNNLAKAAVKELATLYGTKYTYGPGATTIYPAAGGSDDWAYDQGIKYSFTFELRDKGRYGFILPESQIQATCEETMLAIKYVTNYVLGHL
Description: as §1, §2, §3

purified TAFI (TAFIa) = biological target: T3, purified TAFI (TAFIa) (Homo sapiens, UniProt Q96IY4); test: Hydrolysis of MxAFR or MxPAFFK by activated purified TAFI solution; type: biochemical; settings: purified TAFI 18 μg/ml
T3 sequence (Q96IY4 115-423): T1 sequence (Q96IY4 115-423)
Description: 2/ The method of the invention was then applied to a solution of purified TAFI either with a substrate with formula (I) (MxPAFFK) or with MxAFR to verify that TAFIa nevertheless hydrolyzes a compound with formula (I). Coagulation activation was triggered by the thrombin-thrombomodulin-CaCl2 complex (see protocol in Example N^o 2).
The reduction in coloration of each of the two samples was followed using a spectrophotometer. • a) Starting samples: purified TAFI solution, 18 μg/ml (diluted in Hepes buffer); • b) activating coagulation; • c) adding 27 mM MxAFR or MXPAFFK (control), concentration of MxAFFK; • d) adding CPA to the sample containing the MxPAFFK; • e) read OD at 382 nm.

TAFI = settings: per 1 mg of PCI; as indicated by the manufacturer (Calbiochem); cited from earlier work

| Compound | Hydrolysis by activated TAFI (conclusion) (plasma TAFI (TAFIa)) | Final OD [1] | Starting OD [1] | Hydrolysis by activated TAFI (conclusion) (purified TAFI (TAFIa)) | Amount of TAFI (50 U/mg) inhibited at 50% by 1 mg of PCI (TAFI) |
| --- | --- | --- | --- | --- | --- |
| COc1ccc(N=NC(=O)N[C@@H](CCCNC(=N)N)C(=O)O)cc1 [AAFR, 4-methoxyphenylazoformylarginine] | does not hydrolyze | 0.445 | 1.054 | does not hydrolyze | – |
| COc1ccc(/N=N/C(=O)NC(Cc2ccccc2)C(=O)NC(CCCCN)C(=O)O)cc1 (stereo not drawn) [MxPAFFK, 4-metboxyphenylazoformylphenylalanyllysine] | – | – | – | active | – |
| PCI: Carboxypeptidase Inhibitor from Potato Tubers, specific TAFI inhibitor (Calbiochem ref 217359) (QQHADPICNKPCKTHDDCSGAWFCQACWNSARTCGPYVG; UniProt P01075 1-39, looked up) | – | – | – | – | about 8 mg |
